Molecular target: T1, PcCel45A (Phanerodontia chrysosporium, UniProt B3Y002)
T1 construct: gene egv; mature single catalytic domain; pEXPYR+ vector, secreted from Aspergillus nidulans A773 (Results text says A. niger)
Assay: X-ray crystallography of the complex
Type: binding
Details: bound at +1 and +2 subsites of the active-site groove; crystals in ammonium sulfate, Hepes pH 7.5, MPD

T1 sequence (B3Y002 entry or part of it): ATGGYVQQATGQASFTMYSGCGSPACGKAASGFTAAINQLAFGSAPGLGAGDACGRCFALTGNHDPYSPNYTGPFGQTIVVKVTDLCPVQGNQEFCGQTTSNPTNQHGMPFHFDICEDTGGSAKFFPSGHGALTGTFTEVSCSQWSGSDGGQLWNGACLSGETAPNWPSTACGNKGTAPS

OC[C@H]1O[C@@H](O[C@H]2[C@H](O)[C@@H](O)C(O)O[C@@H]2CO)[C@H](O)[C@@H](O)[C@@H]1O (stereo partly shown) [cellobiose]
X-ray crystallography of the complex: The structure of the PcCel45A-cellobiose complex revealed a single cellobiose molecule within the active-site groove

Source: publication PMC5829257, “Structure, computational and biochemical analysis of PcCel45A endoglucanase from Phanerochaete chrysosporium and catalytic mechanisms of GH45 subfamily C members” (Scientific Reports, 2018)
